{"source": "patent US8466195B2", "about": "“Methods and compositions for treating complications of diabetes and vascular diseases using flavones” (Salk Institute for Biological Studies, priority 2009, dated 2013)", "key": {"STZ-diabetic rats [1]": {"tested_on": "STZ-diabetic rats", "experiment": "Indices of nerve function in STZ-diabetic rats", "format": "in vivo, Sprague-Dawley rats", "settings": "25 mg/kg/day fisetin for 8 weeks", "protocol": "Adult female Sprague-Dawley rats were made diabetic with STZ and treated with vehicle or 25 mg/kg/day fisetin for 8 weeks. Large fiber function was tested by measuring nerve conduction velocity and paw withdrawal to touch and small fiber function by paw withdrawal to noxious heat. […] Data are mean±SEM of N=4-8/group."}, "osteopontin (OPN)": {"tested_on": "osteopontin (OPN)", "experiment": "Kidney osteopontin (OPN) in Akita mice (immunoblot)", "format": "in vivo", "settings": "fisetin in diet, OPN band normalized to actin", "protocol": "Kidneys were homogenized in phosphate buffered saline containing protease and phosphatase inhibitors. Equal amounts of protein, as determined by the BCA assay (Pierce), were solubilized in SDS-sample buffer containing 0.1 mM Na3VO4 and 1 mM phenylmethylsulfonyl fluoride (PMSF), boiled for 5 min and either analyzed immediately or stored frozen at −70° C. Proteins were separated on 10% SDS-polyacrylamide gels and transferred to nitrocellulose. Equal loading and transfer of the samples was confirmed by staining the nitrocellulose with Ponceau-S. Transfers were blocked for 1 h at room temperature with 5% nonfat milk in TBS/0.1% Tween 20 and then incubated overnight at 4° C. in the primary antibody diluted in 5% BSA in TBS/0.05% Tween 20. The primary antibodies used were: rabbit anti-osteopontin (Millipore) and actin-HRP (Cell Signaling). […]\nOPN is a key regulator of the pathophysiological changes associated with diabetic nephropathy (Nicolas et al. Kidney Int. advance online publication, 3 Feb. 2010). […] Kidney samples from 6-7 mice were analyzed and the average intensity of the OPN band normalized to actin is shown in the graph. […] In FIG. 10, the data was analyzed by ANOVA followed by Tukey's post test. *** P<0.001"}, "Akita mice [2]": {"tested_on": "Akita mice", "experiment": "Thermal latency response of hind paw in Akita mice", "format": "in vivo", "settings": "fisetin 0.05% in diet for 18 weeks", "protocol": "Mice were placed in an observation chamber on the surface (floor temperature 30° C.) of a modified Hargreaves apparatus (UARD, San Diego, Calif.) and allowed to acclimate for 5 min. For measurement of thermal response latency, a heat source that warmed the chamber surface at approximately 1° C./sec was moved underneath the hind paw and the time to foot withdrawal recorded automatically. The procedure was repeated 4 times on the same paw at 5 min intervals and the median of values 2-4 used to represent the thermal response latency.\nMale Akita mice were fed control diet or fisetin (0.05%) for 18 weeks beginning at 6 weeks of age. Large fiber function was tested by measuring motor nerve conduction velocity and small fiber function by paw withdrawal to noxious heat. Diabetes-induced MNCV slowing and thermal hypoalgesia were ameliorated by fisetin treatment. All data are mean±SD of N=5-7/group. […] P<0.05."}, "Akita mice [3]": {"tested_on": "Akita mice", "experiment": "Open field test in Akita mice", "format": "in vivo", "settings": "fisetin 0.05% in diet for 18 weeks", "protocol": "The open field test was performed using MED Associates hardware and the Activity Monitor software according to the manufacturer's instructions (MED Associates Inc, St. Albans, Vt., USA). The open-field activity monitoring system contains a subject containment environment (chamber), infrared (I/R) sources and sensors. To perform the test, each mouse was placed in the testing chamber and the activity tracked by the Activity Monitor software for 30 min. The scanning was done every 50 ms. The behavioral parameters derived from the open field test included the following: distance traveled, ambulatory time and counts, stereotypic counts and time, resting time, vertical counts and time, jumping counts and time, average velocity, and ambulatory episodes.\nMale Akita mice were fed control diet or fisetin (0.05%) for 18 weeks beginning at 6 weeks of age. Locomotor activity was measured in the open field test. Decreased locomotor activity is an indicator of elevated anxiety which is characteristic of diabetics in poor glycemic control. […] All data are mean±SD of N=5-7/group."}, "BSA": {"biological_target": "BSA (Bos taurus, UniProt P02769)", "sequence (P02769 25-607)": "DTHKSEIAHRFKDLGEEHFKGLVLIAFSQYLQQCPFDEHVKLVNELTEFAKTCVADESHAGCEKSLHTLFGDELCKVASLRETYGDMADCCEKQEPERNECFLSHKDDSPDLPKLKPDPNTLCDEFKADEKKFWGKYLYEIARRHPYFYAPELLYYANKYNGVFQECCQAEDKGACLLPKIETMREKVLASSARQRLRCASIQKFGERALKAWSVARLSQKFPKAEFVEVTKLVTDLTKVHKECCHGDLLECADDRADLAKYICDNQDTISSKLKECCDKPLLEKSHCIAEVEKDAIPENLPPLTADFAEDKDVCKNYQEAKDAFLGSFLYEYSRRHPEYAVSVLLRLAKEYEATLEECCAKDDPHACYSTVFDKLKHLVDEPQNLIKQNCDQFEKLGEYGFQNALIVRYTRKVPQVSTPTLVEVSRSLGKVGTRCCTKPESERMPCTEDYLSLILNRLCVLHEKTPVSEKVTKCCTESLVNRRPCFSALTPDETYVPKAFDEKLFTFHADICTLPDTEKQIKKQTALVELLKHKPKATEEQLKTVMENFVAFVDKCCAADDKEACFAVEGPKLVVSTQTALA", "experiment": "Glycation of BSA by glucose (anti-CML Western blot and fluorescence assay)", "format": "biochemical", "settings": "100 mM glucose, 14 days 37° C., 100 μM fisetin; Western blotting with a-CML and fluorescence assay", "protocol": "In reference to FIG. 1, BSA was incubated with either 100 mM glucose (G) or 100 mM methylglyoxal (MG) for 14 days at 37° C. plus or minus 100 μM fisetin. The BSA was dialyzed vs. PBS run on SDS-PAGE and blotted with anti-carboxymethyl lysine (CML) (a glucose AGE) or anti-MG adducts from Dr. Brownlee. […] In FIG. 1, panel B, anti-MG only reacts with MG treated BSA and also causes protein polymerization. In FIG. 1, panel C, co-incubation with fisetin results in inhibition of glucose glycation in 2 assays, Western blotting with a-CML (BL, hatched bars) and a fluorescence assay for protein glycation (FL, clear bars). In FIG. 1, panel D, fisetin inhibited protein glycation caused by high glucose exposure of human brain microvascular cells. Cells were exposed to either 5 mM (−Glu) or 25 mM (+Glu) glucose for 5 days plus (F) or minus (C) 1 μM fisetin. Cells were then harvested and blotted with either anti-CML or MG antisera."}, "Akita mice [4]": {"tested_on": "Akita mice", "experiment": "Kidney hypertrophy (kidney weight) in Akita mice", "format": "in vivo", "settings": "fisetin 0.05% in diet for 18 weeks", "protocol": "Male Akita mice were fed control diet or fisetin (0.05%) for 18 weeks beginning at 6 weeks of age. Kidney hypertrophy was assessed by weighing the kidneys. Kidney function was assessed by measuring the albumin/creatinine ratio in the urine. Fisetin reduced diabetes-induced renal hypertrophy and proteinuria. All data are mean±SD of N=5-7/group."}, "STZ-diabetic rats [5]": {"tested_on": "STZ-diabetic rats", "experiment": "Kidney function (urine albumin/creatinine ratio) in STZ-diabetic rats", "format": "in vivo, Sprague-Dawley rats", "settings": "25 mg/kg/day fisetin; 6 and 8 weeks after induction of diabetes", "protocol": "Urine albumin concentration was determined by competitive enzyme-linked immunoadsorbent assay using an Albuwell M kit (Exocell, Philadelphia, Pa.). Urine creatinine concentration was determined by Jaffe's reaction of alkaline picrate with creatinine using a Creatinine Companion kit (Exocell). Results are expressed as the urine albumin-to-creatinine ratio (micrograms per milligram).\nAdult female Sprague-Dawley rats were made diabetic with STZ and treated with vehicle or 25 mg/kg/day fisetin. Kidney function was assessed by measuring the albumin/creatinine ratio in the urine at 6 and 8 weeks following induction of diabetes. Fisetin reduced diabetes-induced proteinuria. Data are mean±SEM of N=7-8/group."}, "[6]": {"tested_on": "peripheral and CNS immune cells", "settings": "peripheral [17] and CNS [8] immune cells; cited from earlier work"}}, "note": "Entries after “also recorded” stand apart in the source; their conditions may differ."}
{"molecule": "O=c1c(O)c(-c2ccc(O)c(O)c2)oc2cc(O)ccc12", "note": "[fisetin, 2-(3,4-dihydroxyphenyl)-3,7-dihydroxychromen-4-one]", "values": [{"measurement": "diabetes-induced SNCV slowing", "setting": "STZ-diabetic rats [1]", "result": "ameliorated"}, {"measurement": "severity of diabetes", "setting": "STZ-diabetic rats [1]", "result": "did not alter"}, {"measurement": "tactile allodynia (paw withdrawal to touch)", "setting": "STZ-diabetic rats [1]", "result": "ameliorated"}, {"measurement": "thermal hyperalgesia (paw withdrawal to noxious heat)", "setting": "STZ-diabetic rats [1]", "result": "ameliorated"}, {"measurement": "diabetes-dependent upregulation of osteopontin (OPN) in kidney", "setting": "osteopontin (OPN)", "result": "Prevented"}, {"measurement": "thermal hypoalgesia (hind paw thermal latency)", "setting": "Akita mice [2]", "result": "ameliorated; also recorded: prevented"}, {"measurement": "locomotor activity in the open field test (distance traveled, ambulatory episodes)", "setting": "Akita mice [3]", "result": "restored to near normal values"}, {"measurement": "locomotor activity in the open field test (distance traveled, ambulatory episodes)", "setting": "Akita mice [3]; listed as Fisetin", "result": "restored locomotor activity to nearly control levels"}, {"measurement": "glucose glycation of BSA", "setting": "BSA", "result": "inhibition"}, {"measurement": "diabetes-induced renal hypertrophy (kidney weight)", "setting": "Akita mice [4]", "result": "greatly reduced"}, {"measurement": "diabetes-induced renal hypertrophy (kidney weight)", "setting": "Akita mice [4]; listed as Fisetin", "result": "reduced"}, {"measurement": "diabetes-induced proteinuria (urine albumin/creatinine ratio)", "setting": "STZ-diabetic rats [5]", "result": "reduced"}, {"measurement": "anti-inflammatory activity", "setting": "[6]", "result": "anti-inflammatory activity"}]}
